Data on 15 molecules can be found in publication PMC9902381, “Binding and functional structure-activity similarities of 4-substituted 2,5-dimethoxyphenyl isopropylamine analogues at 5-HT2A and 5-HT2B serotonin receptors” (Frontiers in Pharmacology, 2023).

A word on the pEC50: it is the EC50 on a negative log10 scale, so that one unit is a factor of ten.

The target in data set [1] is T1, human 5-HT2B receptor (Homo sapiens, UniProt P41595).
T1 construct: host or cells: Flp-In T-REx 293 cells (HEK 293)
T1 sequence (P41595 whole entry): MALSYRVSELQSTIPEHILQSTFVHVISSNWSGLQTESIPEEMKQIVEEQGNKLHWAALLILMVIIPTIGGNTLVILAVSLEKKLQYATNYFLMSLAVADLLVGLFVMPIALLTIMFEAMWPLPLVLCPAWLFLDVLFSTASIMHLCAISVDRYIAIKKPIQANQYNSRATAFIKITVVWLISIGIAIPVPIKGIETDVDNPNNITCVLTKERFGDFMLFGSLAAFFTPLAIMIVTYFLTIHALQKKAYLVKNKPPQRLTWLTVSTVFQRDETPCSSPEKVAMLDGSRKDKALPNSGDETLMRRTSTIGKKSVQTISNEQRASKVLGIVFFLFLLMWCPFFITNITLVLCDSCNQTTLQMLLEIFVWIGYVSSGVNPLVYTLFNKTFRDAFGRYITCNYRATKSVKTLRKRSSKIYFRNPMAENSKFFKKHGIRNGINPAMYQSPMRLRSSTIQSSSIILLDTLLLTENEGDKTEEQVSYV
Description: 5-HT2B receptor functional activity (agonist) using Ca2+ mobilization assay in Flp-In T-REx 293 cells. Type of data set: cell-based. The following applies: for Maximal 5-HT effect: maximal effect relative to 5-HT = 100%; for Emax: Flp-In-T-REx-293, read-out: Maximal 5-HT effect; for agonist effect at 5-HT2B receptors: highest concentration examined (10,000 nM). A general note: Calcium flux is commonly read through the fluorescence of an indicator in the cells.

The target of another data set is human 5-HT2A. On the set-up: method as in Nelson et al., 1999. The following applies: cloned human 5-HT2A vs [125I]DOI; ref Nelson et al., 1999; cited from earlier work.
The target of the next data set is human 5-HT2B. On the set-up: method as in Nelson et al., 1999. The note with it: human 5-HT2B vs [3H]5-HT; ref Nelson et al., 1999; cited from earlier work.
The conditions of data set [2]: substituent constant; ref Hansch et al. 1973; cited from earlier work.
The next data set concerns the target rat 5-HT2. The arrangement: method as in Seggel et al., 1990. The following applies: rat brain 5-HT2 vs [3H]ketanserin; ref Seggel et al., 1990; cited from earlier work.
For the next data set, the system named is human 5-HT2B receptors. On the set-up: method as in Porter et al. (1999). The following applies: CHO cells, intracellular calcium; ref Porter et al. (1999); cited from earlier work.
For the next data set, the system named is 5-HT2B receptor. On the set-up: method as in Huang et al. (2009). The following applies: multiple functional assays; ref Huang et al. (2009); cited from earlier work.
The subject of another data set is rat 5-HT2A. On the set-up: method as in Seggel et al., 1990; Glennon 2017. The following applies: ref Seggel et al., 1990; Glennon 2017; cited from earlier work.
Data set [3] deals with T1, human 5-HT2B receptor. Description: 5-HT2B receptor antagonism of 10 nM 5-HT Ca2+ signal in Flp-In T-REx 293 cells. Type of data set: cell-based. The method, then:
A stable cell line was generated expressing the human 5-HT2B receptor using the Flp-In T-REx system (Thermo Fisher) ([Younkin et al., 2016]; [Steele et al., 2021]). Briefly, 5-HT2B receptor coding plasmid was obtained from cDNA Resource Center (cat # HTR02B0000). The 5-HT2B receptor cDNA was subcloned into the pcDNA/FRT/TO expression plasmid, and was co-transfected with pOG44 plasmid (coding the Flp recombinase) in Flp-In T-REx 293 cells. Cells were selected using 100 μg/mL of hygromycin and resistant cells were expanded and stored in liquid N2 for later use. For experimentation, stable cell lines were plated in Matrigel-coated 96-well imaging plates in Dulbecco’s Modified Eagle Medium (DMEM) containing 10% fetal bovine serum (FBS) and 5% penicillin/streptomycin, and the medium was supplemented with doxycycline (1 μg/mL) to upregulate the expression of the receptor 3 days before the experiment. Then, cells were loaded with Fura 2-AM for 30 min in Ca^2+ imaging solution (IS) consistent of 130 NaCl, 4 KCl, 2 CaCl2, 1 MgCl2, 10 HEPES, 10 glucose (in mM, pH adjusted to 7.4). […] Three wells containing cells were analyzed for each concentration per experiment day. […] All data were processed used Fiji software by ImageJ2 which allowed manual selection of cells and measurement of fluorescence. […]

The mark [4] stands for this setting: agonist potency, Ca2+ mobilization, Hill slope 1.0.
The mark [5] stands for this setting: agonist potency, Ca2+ mobilization, Hill slope 1.0, read-out: h5-HT2B EC50.

pEC50: −log10 of the molar value. Read-outs that look alike come from different tables or passages of the source. Where only a bound is given, the exact number is not on record here.

As for `COc1ccc(OC)c(C[C@@H](C)N)c1` (single isomer, unassigned) [R (−) enantiomer], the “h5-HT2B pEC50 ± SEM” value on human 5-HT2B receptor [1] (setting [4]) is given as 5.49 ± 0.16. Besides, the pEC50 at human 5-HT2B receptor [1] (setting [5]) is 5.49. Further, at human 5-HT2B receptor [1], the “Maximal 5-HT effect” value was determined as 87%.
Take `COc1ccc(OC)c(CC(C)N)c1` (stereo not shown) [1a, 1-(2,5-dimethoxyphenyl)isopropylamine]: the “h5-HT2A pKi” value at human 5-HT2A is on record as 6.68. Also, the “h5-HT2B pKi” value at human 5-HT2B was 5.98. Further, on human 5-HT2B receptor [1], the pEC50 is 5.47 and the Emax turned out to be 93%. Besides, in data set [2], the “σp (electronic character of 4-position substituent)” value was 0. In addition, on rat 5-HT2, the “r5-HT2 pKi” value is 5.28.
`COc1cc(CC(C)N)c(OC)cc1F` (stereo not shown) [1b]: at human 5-HT2A, the “h5-HT2A pKi” value is on record as 7.38. In addition, at human 5-HT2B, the “h5-HT2B pKi” value is recorded as 6.64. Also, at human 5-HT2B receptor [1], the pEC50 is 6.36 and the Emax amounted to 82%. In addition, in data set [2], the “π (lipophilic character of 4-position substituent)” value was 0.14 and the “σp (electronic character of 4-position substituent)” value is 0.06. Besides, the “r5-HT2 pKi” value at rat 5-HT2 is 5.96.
Turning to `COc1cc(CC(C)N)c(OC)cc1Cl` (stereo not shown) [1c], the “h5-HT2A pKi” value on human 5-HT2A was 8.85. Also, at human 5-HT2B, the “h5-HT2B pKi” value is on record as 7.50. In [2], the “π (lipophilic character of 4-position substituent)” value is listed as 0.71 and the “σp (electronic character of 4-position substituent)” value is recorded as 0.23. Moreover, the “r5-HT2 pKi” value at rat 5-HT2 was 6.66.
Consider `COc1cc(CC(C)N)c(OC)cc1Br` (stereo not shown) [1d], for which the “h5-HT2A pKi” value on human 5-HT2A is reported as 9.22. In addition, at human 5-HT2B, the “h5-HT2B pKi” value is given as 7.53. Besides, the “% of the effect of 5-HT at human 5-HT2B” value in the data set on human 5-HT2B receptors is reported as 69%. Further, on human 5-HT2B receptor [1], the pEC50 is 8.06 and the Emax worked out at 70%. For the same molecule, in data set [2], the “π (lipophilic character of 4-position substituent)” value is listed as 0.86 and the “σp (electronic character of 4-position substituent)” value is given as 0.23.
For the molecule `COc1cc(CC(C)N)c(OC)cc1I` (stereo not shown) [1e], on human 5-HT2B, the “h5-HT2B pKi” value is 7.70. In addition, the “% of the effect of 5-HT at human 5-HT2B” value in the data set with human 5-HT2B receptors is reported as 65%. Further, the “5-HT2B receptor agonist action” value in the data set on 5-HT2B receptor is listed as “potent 5-HT2B receptor agonist”. Besides, on human 5-HT2B receptor [1], the pEC50 was 7.43 and the “Maximal 5-HT effect” value is reported as 71%. Also, in data set [2], the “π (lipophilic character of 4-position substituent)” value is reported as 1.12 and the “σp (electronic character of 4-position substituent)” value is 0.18. Also, the “r5-HT2 pKi” value at rat 5-HT2 is listed as 7.72.
Turning to `COc1cc(OC)c(OC)cc1CC(C)N` (stereo not shown) [1f], the “h5-HT2A pKi” value at human 5-HT2A is 7.24. In addition, the “h5-HT2B pKi” value on human 5-HT2B is recorded as 6.51. Also, in data set [2], the “π (lipophilic character of 4-position substituent)” value was -0.02 and the “σp (electronic character of 4-position substituent)” value was -0.27. Also, the “r5-HT2 pKi” value at rat 5-HT2 was 5.90.
With `CCOc1cc(OC)c(CC(C)N)cc1OC` (stereo not shown) [1g], the “h5-HT2A pKi” value on human 5-HT2A is reported as 7.14. In addition, on human 5-HT2B, the “h5-HT2B pKi” value was 6.12. For the same molecule, on human 5-HT2B receptor [1], the pEC50 is 6.25 and the Emax is 70%. Moreover, in data set [2], the “π (lipophilic character of 4-position substituent)” value was 0.38 and the “σp (electronic character of 4-position substituent)” value is recorded as -0.24. Further, on rat 5-HT2, the “r5-HT2 pKi” value is recorded as 5.66.
For the molecule `COc1cc([N+](=O)[O-])c(OC)cc1CC(C)N` (stereo not shown) [1h], on human 5-HT2A, the “h5-HT2A pKi” value is recorded as 8.26. Moreover, the “h5-HT2B pKi” value at human 5-HT2B was 6.78. At human 5-HT2B receptor [1], the pEC50 was 7.05 and the Emax was 77%. Further, in data set [2], the “π (lipophilic character of 4-position substituent)” value is -0.28 and the “σp (electronic character of 4-position substituent)” value is 0.78. Also, at rat 5-HT2, the “r5-HT2 pKi” value was 6.52.
For `COc1cc(CC(C)N)c(OC)cc1C#N` (stereo not shown) [1i], the “h5-HT2A pKi” value on human 5-HT2A was 7.34. For the same molecule, the “h5-HT2B pKi” value on human 5-HT2B was 6.11. Besides, in data set [2], the “π (lipophilic character of 4-position substituent)” value is -0.57 and the “σp (electronic character of 4-position substituent)” value is given as 0.66. The “r5-HT2 pKi” value on rat 5-HT2 is reported as 5.62.
For the molecule `CCCc1cc(OC)c(CC(C)N)cc1OC` (stereo not shown) [1j], the “h5-HT2A pKi” value at human 5-HT2A is recorded as 9.05. At human 5-HT2B receptor [1], the pEC50 is 7.26 and the “Maximal 5-HT effect” value was 75%. Also, in data set [2], the “π (lipophilic character of 4-position substituent)” value was 1.55 and the “σp (electronic character of 4-position substituent)” value is listed as -0.13. For the same molecule, the “r5-HT2 pKi” value on rat 5-HT2 was 7.16.
Turning to `CCCCCCc1cc(OC)c(CC(C)N)cc1OC` (stereo not shown) [1k], the “h5-HT2A pKi” value at human 5-HT2A is given as 10.00. Besides, the “rat 5-HT2A functional action” value in the data set with rat 5-HT2A is “lack rat 5-HT2A agonist action and behave as antagonists”. Moreover, the “h5-HT2B pKi” value at human 5-HT2B is reported as 7.52. At human 5-HT2B receptor [3], the “action on the 5-HT-mediated response at 5-HT2B” value is recorded as “behaved as antagonists”. Moreover, on human 5-HT2B receptor [1], the pEC50 is below 5.00, the “agonist effect at 5-HT2B receptors” value is recorded as “failed to produce an agonist effect” and the “Maximal 5-HT effect” value was determined as 0%. In [2], the “π (lipophilic character of 4-position substituent)” value was 3.05 and the “σp (electronic character of 4-position substituent)” value is -0.13. The “r5-HT2 pKi” value at rat 5-HT2 was 8.60.
For the molecule `COc1cc(C(C)(C)C)c(OC)cc1CC(C)N` (stereo not shown) [1l], on human 5-HT2A, the “h5-HT2A pKi” value was 8.43. On human 5-HT2B, the “h5-HT2B pKi” value is on record as 7.61. Further, on human 5-HT2B receptor [1], the pEC50 is 7.43 and the Emax came out at 69%. Further, in data set [2], the “π (lipophilic character of 4-position substituent)” value is 1.98 and the “σp (electronic character of 4-position substituent)” value is reported as -0.20. Moreover, on rat 5-HT2, the “r5-HT2 pKi” value is 7.72.
With `COc1cc(CC(C)N)c(OC)cc1Cc1ccccc1` (stereo not shown) [1m], the “h5-HT2A pKi” value on human 5-HT2A is reported as 9.40. Further, the “rat 5-HT2A functional action” value with rat 5-HT2A is “lack rat 5-HT2A agonist action and behave as antagonists”. The “h5-HT2B pKi” value at human 5-HT2B is reported as 7.64. At human 5-HT2B receptor [3], the “action on the 5-HT-mediated response at 5-HT2B” value was “behaved as antagonists”. On human 5-HT2B receptor [1], the pEC50 is below 5.00, the Emax stood at 0% and the “agonist effect at 5-HT2B receptors” value was “failed to produce an agonist effect”. For the same molecule, in data set [2], the “π (lipophilic character of 4-position substituent)” value was 2.01 and the “σp (electronic character of 4-position substituent)” value is reported as -0.09. Besides, the “r5-HT2 pKi” value at rat 5-HT2 is 8.15.
In the case of `COc1ccc(OC)c(C[C@H](C)N)c1` [S (+)1a], at human 5-HT2B receptor [1] (setting [4]), the “h5-HT2B pEC50 ± SEM” value amounted to 6.32 ± 0.15. The pEC50 on human 5-HT2B receptor [1] (setting [5]) is 6.32. For the same molecule, the “Maximal 5-HT effect” value at human 5-HT2B receptor [1] stood at 100%. In addition, the “potency relative to R (−) enantiomer at 5-HT2B” value on human 5-HT2B receptor [1] (optical isomers of 2,5-DMA) was “about six times more potent”.
